Here are results for 3 molecules from patent US9340590B2 (priority 2011, dated 2016).

Common to all, as to assay: cell-based
One assay addresses hNav1.7 (Homo sapiens, UniProt Q15858). It counts as cell-based. The note with it: IonWorks Quattro; clamped to −110 mV, depolarized to −10 mV, 5 min after compound; n=2; read-out: IWQ Use Nav1.7. For orientation: Patch clamp records ionic current or voltage across a cell membrane.
Another assay deals with hNav1.5 (Homo sapiens, UniProt Q14524). The note with it: IonWorks Quattro; clamped to −110 mV, depolarized to −10 mV, 5 min after compound; n=2; read-out: IWQ Use Nav1.5.
Sequence of hNav1.5 (Q14524 whole entry, looked up): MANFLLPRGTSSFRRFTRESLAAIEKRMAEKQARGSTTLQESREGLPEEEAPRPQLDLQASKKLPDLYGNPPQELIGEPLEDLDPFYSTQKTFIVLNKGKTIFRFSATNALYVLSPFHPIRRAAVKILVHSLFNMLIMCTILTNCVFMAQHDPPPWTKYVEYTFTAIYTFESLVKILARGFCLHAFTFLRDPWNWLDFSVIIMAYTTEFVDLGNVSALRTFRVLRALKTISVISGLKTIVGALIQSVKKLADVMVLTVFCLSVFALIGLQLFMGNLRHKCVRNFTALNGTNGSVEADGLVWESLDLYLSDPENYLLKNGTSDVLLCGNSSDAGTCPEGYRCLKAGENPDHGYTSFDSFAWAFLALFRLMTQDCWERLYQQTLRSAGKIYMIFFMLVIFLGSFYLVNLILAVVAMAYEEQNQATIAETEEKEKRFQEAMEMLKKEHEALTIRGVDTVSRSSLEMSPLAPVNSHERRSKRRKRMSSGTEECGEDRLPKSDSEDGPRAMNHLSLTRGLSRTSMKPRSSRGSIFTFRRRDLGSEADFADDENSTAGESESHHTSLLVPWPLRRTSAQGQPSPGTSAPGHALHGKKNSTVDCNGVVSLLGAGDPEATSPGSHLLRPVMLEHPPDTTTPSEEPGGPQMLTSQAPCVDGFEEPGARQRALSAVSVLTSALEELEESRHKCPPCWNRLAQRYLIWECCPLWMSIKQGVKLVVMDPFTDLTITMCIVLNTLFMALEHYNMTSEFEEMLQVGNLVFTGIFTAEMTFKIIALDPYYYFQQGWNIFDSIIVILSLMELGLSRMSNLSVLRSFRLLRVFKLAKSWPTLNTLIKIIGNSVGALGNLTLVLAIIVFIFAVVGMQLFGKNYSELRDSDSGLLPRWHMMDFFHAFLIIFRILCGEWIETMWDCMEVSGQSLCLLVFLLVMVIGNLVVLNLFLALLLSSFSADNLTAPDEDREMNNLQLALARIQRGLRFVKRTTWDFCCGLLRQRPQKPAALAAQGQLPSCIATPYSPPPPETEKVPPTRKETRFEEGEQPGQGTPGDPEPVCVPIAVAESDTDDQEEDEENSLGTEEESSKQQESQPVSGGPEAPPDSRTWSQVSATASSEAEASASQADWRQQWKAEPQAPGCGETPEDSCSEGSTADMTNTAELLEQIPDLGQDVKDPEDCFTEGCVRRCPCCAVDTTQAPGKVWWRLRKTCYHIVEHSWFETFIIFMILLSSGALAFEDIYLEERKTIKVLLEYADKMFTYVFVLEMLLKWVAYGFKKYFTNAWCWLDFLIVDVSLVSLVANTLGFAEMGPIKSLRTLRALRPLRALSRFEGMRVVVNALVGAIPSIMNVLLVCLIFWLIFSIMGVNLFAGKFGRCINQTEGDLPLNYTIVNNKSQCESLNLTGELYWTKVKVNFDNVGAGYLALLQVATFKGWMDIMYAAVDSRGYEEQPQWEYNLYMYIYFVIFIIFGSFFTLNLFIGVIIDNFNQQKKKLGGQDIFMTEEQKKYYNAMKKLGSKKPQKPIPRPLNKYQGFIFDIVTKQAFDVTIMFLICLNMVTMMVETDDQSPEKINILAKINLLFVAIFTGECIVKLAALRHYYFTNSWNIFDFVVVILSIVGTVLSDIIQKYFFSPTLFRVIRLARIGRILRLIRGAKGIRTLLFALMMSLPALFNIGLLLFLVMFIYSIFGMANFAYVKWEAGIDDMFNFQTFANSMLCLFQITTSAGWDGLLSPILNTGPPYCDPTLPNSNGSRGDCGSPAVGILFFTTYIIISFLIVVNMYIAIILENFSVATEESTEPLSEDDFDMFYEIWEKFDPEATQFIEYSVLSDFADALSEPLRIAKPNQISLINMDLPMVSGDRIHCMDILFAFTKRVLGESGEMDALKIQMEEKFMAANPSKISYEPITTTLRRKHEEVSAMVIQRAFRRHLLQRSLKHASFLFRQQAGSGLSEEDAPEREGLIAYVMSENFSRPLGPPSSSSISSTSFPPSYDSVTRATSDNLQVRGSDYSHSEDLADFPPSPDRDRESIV
In the next assay the target is hNav1.3 (Homo sapiens, UniProt Q9NY46). The following applies: IonWorks Quattro; clamped to −110 mV, depolarized to −10 mV, 5 min after compound; n=2; read-out: IWQ Use Nav1.3.

Positions of bridges follow the written chain, without caps; N, C: chain ends. Residues, ends and D or L forms follow the SMILES beside them.

Sequence of hNav1.7 (Q15858 whole entry, looked up): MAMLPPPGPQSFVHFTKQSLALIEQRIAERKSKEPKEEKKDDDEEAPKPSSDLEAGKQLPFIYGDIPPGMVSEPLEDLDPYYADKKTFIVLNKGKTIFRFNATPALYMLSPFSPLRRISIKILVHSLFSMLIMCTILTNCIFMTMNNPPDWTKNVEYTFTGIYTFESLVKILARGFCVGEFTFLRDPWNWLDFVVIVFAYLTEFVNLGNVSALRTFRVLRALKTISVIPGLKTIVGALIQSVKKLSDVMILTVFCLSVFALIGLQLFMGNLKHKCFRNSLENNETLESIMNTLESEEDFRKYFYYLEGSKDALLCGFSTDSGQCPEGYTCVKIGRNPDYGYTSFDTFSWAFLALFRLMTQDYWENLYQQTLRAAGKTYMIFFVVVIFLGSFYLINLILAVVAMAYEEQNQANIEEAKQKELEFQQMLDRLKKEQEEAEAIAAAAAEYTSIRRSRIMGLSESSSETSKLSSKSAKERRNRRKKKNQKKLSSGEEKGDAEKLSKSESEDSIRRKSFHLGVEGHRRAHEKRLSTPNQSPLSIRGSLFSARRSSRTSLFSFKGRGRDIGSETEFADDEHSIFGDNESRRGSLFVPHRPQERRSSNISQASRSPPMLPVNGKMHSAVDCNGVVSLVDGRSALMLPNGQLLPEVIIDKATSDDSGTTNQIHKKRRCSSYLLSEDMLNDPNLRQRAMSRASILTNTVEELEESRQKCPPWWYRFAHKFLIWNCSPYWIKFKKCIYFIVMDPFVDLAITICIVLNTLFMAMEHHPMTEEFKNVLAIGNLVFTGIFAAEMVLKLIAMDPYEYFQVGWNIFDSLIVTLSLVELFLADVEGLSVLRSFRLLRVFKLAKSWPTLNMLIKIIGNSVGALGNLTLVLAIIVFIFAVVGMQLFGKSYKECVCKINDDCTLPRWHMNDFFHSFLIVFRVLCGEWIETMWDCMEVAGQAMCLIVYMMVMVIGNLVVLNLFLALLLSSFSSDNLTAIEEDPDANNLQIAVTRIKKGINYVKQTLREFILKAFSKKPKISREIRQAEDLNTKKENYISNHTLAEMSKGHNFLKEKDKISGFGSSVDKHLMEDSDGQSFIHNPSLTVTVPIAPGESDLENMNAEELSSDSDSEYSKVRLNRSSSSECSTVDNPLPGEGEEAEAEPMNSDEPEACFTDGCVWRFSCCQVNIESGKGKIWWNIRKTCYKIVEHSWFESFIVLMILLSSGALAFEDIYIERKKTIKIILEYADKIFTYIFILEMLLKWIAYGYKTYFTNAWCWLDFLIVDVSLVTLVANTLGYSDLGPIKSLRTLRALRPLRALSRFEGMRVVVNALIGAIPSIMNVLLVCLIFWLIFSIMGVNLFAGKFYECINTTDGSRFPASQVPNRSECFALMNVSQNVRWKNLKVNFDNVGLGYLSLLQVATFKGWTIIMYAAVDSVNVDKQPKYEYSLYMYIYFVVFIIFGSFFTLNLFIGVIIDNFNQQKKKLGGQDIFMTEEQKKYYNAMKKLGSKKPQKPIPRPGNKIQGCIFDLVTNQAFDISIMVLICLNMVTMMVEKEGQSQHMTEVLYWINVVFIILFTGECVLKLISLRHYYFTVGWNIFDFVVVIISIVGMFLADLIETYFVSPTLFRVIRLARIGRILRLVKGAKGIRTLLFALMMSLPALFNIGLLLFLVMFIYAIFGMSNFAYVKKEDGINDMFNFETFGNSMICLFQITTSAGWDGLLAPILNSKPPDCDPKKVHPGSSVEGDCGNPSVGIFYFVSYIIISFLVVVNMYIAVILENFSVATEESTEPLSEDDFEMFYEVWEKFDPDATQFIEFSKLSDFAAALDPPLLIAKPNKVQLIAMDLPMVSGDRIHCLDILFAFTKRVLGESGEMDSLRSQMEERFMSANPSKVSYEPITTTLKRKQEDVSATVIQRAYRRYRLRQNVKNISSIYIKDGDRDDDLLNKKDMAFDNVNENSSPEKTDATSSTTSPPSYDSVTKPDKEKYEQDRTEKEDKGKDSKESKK

As for `CC[C@H](C)[C@@H]1NC(=O)[C@@H]2CSSC[C@@H]3NC(=O)[C@H](C(C)C)NC(=O)[C@H](CC(C)C)NC(=O)[C@H](CC(N)=O)NC(=O)[C@@H]4CCCN4C(=O)[C@H](CCCNC(=N)N)NC(=O)[C@H](CSSC[C@H](NC(=O)[C@@H](N)CC(=O)O)C(=O)N[C@@H](CC(C)C)C(=O)NCC(=O)N[C@@H](Cc4ccccc4)C(=O)N[C@@H](C(C)C)C(=O)N[C@@H](CCCNC(=N)N)C(=O)N[C@@H](CCCCN)C(=O)N2)NC(=O)[C@H](CSSC[C@@H](C(=O)N[C@@H](CCCCN)C(=O)N[C@@H](Cc2ccc(O)cc2)C(=O)N[C@H](C(=O)N[C@@H](Cc2ccccc2)C(N)=O)C(C)C)NC(=O)[C@H](Cc2c[nH]c4ccccc24)NC(=O)[C@H](CCCCN)NC(=O)[C@H](Cc2c[nH]cn2)NC(=O)[C@H]([C@@H](C)O)NC(=O)[C@H](CCCNC(=N)N)NC(=O)[C@H](CO)NC3=O)NC(=O)[C@H](CCCCN)NC(=O)[C@H](CC(=O)O)NC(=O)[C@H](CC(N)=O)NC(=O)[C@H](CC(=O)O)NC(=O)[C@@H]2CCCN2C1=O` [SEQ ID NO: 287] (H-DCLGFVRKCIPDNDKCCRPNLVCSRTHKWCKYVF-NH2; disulfide 2-17, 9-23, 16-30), the values for the IC50 at hNav1.7, on hNav1.5 and at hNav1.3 were 90 nM, 9230 nM and 80 nM, respectively.

In the case of `CC[C@H](C)[C@@H]1NC(=O)[C@@H]2CSSC[C@@H]3NC(=O)[C@H](C(C)C)NC(=O)[C@H](CC(C)C)NC(=O)[C@H](CC(N)=O)NC(=O)[C@@H]4CCCN4C(=O)[C@H](CCCNC(=N)N)NC(=O)[C@H](CSSC[C@H](NC(=O)[C@@H](N)CC(=O)O)C(=O)N[C@@H](CC(C)C)C(=O)NCC(=O)N[C@@H](Cc4ccccc4)C(=O)N[C@@H](c4ccccc4)C(=O)N[C@@H](CCCNC(=N)N)C(=O)N[C@@H](CCCCN)C(=O)N2)NC(=O)[C@H](CSSC[C@@H](C(=O)N[C@@H](CCCCN)C(=O)N[C@@H](Cc2ccc(O)cc2)C(=O)N[C@H](C(=O)N[C@@H](Cc2ccccc2)C(N)=O)C(C)C)NC(=O)[C@H](Cc2c[nH]c4ccccc24)NC(=O)[C@H](CCCCN)NC(=O)[C@H](Cc2c[nH]cn2)NC(=O)[C@H]([C@@H](C)O)NC(=O)[C@H](CCCNC(=N)N)NC(=O)[C@H](CO)NC3=O)NC(=O)[C@H](CCCCN)NC(=O)[C@H](CC(=O)O)NC(=O)[C@H](CC(N)=O)NC(=O)[C@H](CC(=O)O)NC(=O)[C@@H]2CCCN2C1=O` [SEQ ID NO: 288], the IC50 on hNav1.7 is 150 nM; at hNav1.5 it was greater than 5000 nM; on hNav1.3 it was 90 nM.

On to `CC[C@H](C)[C@@H]1NC(=O)[C@@H]2CSSC[C@@H]3NC(=O)[C@H](C(C)C)NC(=O)[C@H](CC(C)C)NC(=O)[C@H](CC(N)=O)NC(=O)[C@@H]4CCCN4C(=O)[C@H](CCCNC(=N)N)NC(=O)[C@H](CSSC[C@H](NC(=O)[C@@H](N)CC(=O)O)C(=O)N[C@@H](CC(C)C)C(=O)NCC(=O)N[C@@H](Cc4ccccc4)C(=O)N(C)[C@@H](Cc4c[nH]c5ccccc45)C(=O)N[C@@H](CCCNC(=N)N)C(=O)N[C@@H](CCCCN)C(=O)N2)NC(=O)[C@H](CSSC[C@@H](C(=O)N[C@@H](CCCCN)C(=O)N[C@@H](Cc2ccc(O)cc2)C(=O)N[C@H](C(=O)N[C@@H](Cc2ccccc2)C(N)=O)C(C)C)NC(=O)[C@H](Cc2c[nH]c4ccccc24)NC(=O)[C@H](CCCCN)NC(=O)[C@H](Cc2c[nH]cn2)NC(=O)[C@H]([C@@H](C)O)NC(=O)[C@H](CCCNC(=N)N)NC(=O)[C@H](CO)NC3=O)NC(=O)[C@H](CCCCN)NC(=O)[C@H](CC(=O)O)NC(=O)[C@H](CC(N)=O)NC(=O)[C@H](CC(=O)O)NC(=O)[C@@H]2CCCN2C1=O` [SEQ ID NO: 289], for which the IC50 is 140 nM at hNav1.7, 21400 nM on hNav1.5 and 240 nM at hNav1.3.
